Tests used:
Type in all cases: biochemical
Ube2L3 = target: T1, Ube2L3 (Homo sapiens, UniProt P68036); assay: On-bead UPS-CONA, concentration-dependent inhibition on eGFP-Ube2L3
T1 construct: eGFP-Ube2L3

Ube1 [1] = target: T2, Ube1 (Homo sapiens, UniProt P22314); assay: Gel-based Ube1~Ub thioester assay with purified Ube1; also on-bead UPS-CONA with Ube1 alone (IC50 below […])
T2 construct: gene UBA1
T2 sequence (P22314 2-1058): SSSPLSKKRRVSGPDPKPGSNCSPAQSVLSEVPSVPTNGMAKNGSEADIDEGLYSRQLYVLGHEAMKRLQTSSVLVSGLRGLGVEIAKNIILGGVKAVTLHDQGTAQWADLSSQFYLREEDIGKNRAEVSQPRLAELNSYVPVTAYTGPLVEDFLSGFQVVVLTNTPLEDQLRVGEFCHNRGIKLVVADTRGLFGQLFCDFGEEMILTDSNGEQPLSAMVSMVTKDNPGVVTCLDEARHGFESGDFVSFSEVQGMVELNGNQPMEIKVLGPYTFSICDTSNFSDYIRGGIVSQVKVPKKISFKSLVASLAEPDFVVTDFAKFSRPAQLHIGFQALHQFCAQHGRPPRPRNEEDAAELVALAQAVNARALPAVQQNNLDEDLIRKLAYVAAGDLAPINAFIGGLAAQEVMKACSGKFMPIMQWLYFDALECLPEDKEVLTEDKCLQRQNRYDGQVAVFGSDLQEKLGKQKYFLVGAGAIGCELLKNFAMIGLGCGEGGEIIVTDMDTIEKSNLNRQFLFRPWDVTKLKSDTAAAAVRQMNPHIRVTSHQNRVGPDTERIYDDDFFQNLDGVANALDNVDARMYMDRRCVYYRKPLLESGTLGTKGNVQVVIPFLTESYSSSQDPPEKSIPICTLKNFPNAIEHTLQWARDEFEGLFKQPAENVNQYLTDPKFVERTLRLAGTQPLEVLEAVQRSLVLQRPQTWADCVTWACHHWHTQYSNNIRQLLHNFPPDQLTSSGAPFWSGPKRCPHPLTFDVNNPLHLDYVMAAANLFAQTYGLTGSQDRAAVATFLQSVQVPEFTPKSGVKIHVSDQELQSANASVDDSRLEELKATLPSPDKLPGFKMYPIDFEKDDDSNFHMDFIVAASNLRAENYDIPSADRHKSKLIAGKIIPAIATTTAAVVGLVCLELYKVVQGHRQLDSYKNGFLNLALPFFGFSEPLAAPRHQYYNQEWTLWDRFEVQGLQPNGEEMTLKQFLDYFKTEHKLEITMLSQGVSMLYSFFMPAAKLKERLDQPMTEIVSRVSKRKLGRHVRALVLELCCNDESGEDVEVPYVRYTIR

Ube1 [2] = target: T2, Ube1; assay: Gel-based Ube1~Ub thioester assay and on-bead UPS-CONA with Ube1 alone

T1 sequence (P68036 whole entry, one chain of several): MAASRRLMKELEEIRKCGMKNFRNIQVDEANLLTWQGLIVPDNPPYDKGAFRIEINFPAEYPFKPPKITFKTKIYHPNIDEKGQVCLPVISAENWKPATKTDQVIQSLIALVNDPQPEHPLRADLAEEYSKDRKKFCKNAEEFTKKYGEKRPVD

SMILES | IC50 (Ube2L3) [µM] | IC50 (Ube1 [1]) [µM] | IC50 (Ube1 [2]) [µM]
Cc1ccc(S(=O)(=O)/C=C/C#N)cc1 [BAY 11-7082] | 7.5 | ~4.6 | –
CCc1ccc(/C=C/C(=O)Nc2ccc(C(C)=O)cc2)o1 [heclin] | – | – | 16

From paper PMC6086040, “Real-time tracking of complex ubiquitination cascades using a fluorescent confocal on-bead assay” (BMC Biology, 2018)
